# Reference: article PMC11876601 (Molecular Systems Biology, 2025)
# Where two headings read alike, the source gives them in different places.
# Experiments:
# 13 PDAC cell lines = assay: Phenotypic drug combination viability screen (ATPlite, 72 h), cell line panel; type: cell-based, human; settings: for synergy with GEM (Bliss model, ΣAUC∆ > 10%): any of the cell lines, GEM low and GEM high; for median AUC across all cell lines: single agent, 72 h
# Description: (§1) Cell viability was assessed by measuring ATP levels to indicate metabolic activity.
# (§2) Afterward, small amounts were transferred to 384-well intermediate plates (Greiner Bio-One GmbH, Germany). […] For drug combination screening, 1000 to 5000 cells were seeded into 384-well plates (CulturPlate™, Perkin Elmer, MA, USA) using a Multidrop™ Combi Reagent Dispenser (Thermo Scientific, MA, USA) in 50 µl medium per well 24 h prior to drug treatment (seeding densities see Appendix Table S1). […] The final DMSO concentration in each well was 0.2%. […] Eight wells per plate without library drug served as negative controls, and sixteen wells per plate containing 5 µM Staurosporine served as positive controls. Control plates not containing any drug were used to correct for incubation effects, and data quality was assessed by calculation of Z-prime of positive and negative controls according to1 Z-prime=1−3SDpos+3SDneg/[…] where SD is the standard deviation. […] Dose–response curves from the experimental and hypothetical data were compared, and shifts in AUC were used to describe combination effects (AUC∆ = AUChypothetical − AUCexperimental). […] Only combinations with R^2 > 0.8 in both conditions were considered in the synergy analysis.
# [1] = system: HPDE (immortalized pancreatic duct cell line); assay: Drug combination viability screen (ATPlite, 72 h); type: cell-based, human; settings: for AUC: single agent, HPDE;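 on AUC: area under vehicle-normalized viability curve scaled 0 to 100 percent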
# Description: as §1, §2
# PSN-1 [2] = assay: cells; parameters: Viability of PDAC cell lines, ATPlite luminescence, 11-dose single-agent curve fit; settings: Homo sapiens, PSN1, 72 h, read-out: EC50 [nM]
# Summary of the method: (§3)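 screening used cells plated at 1000 to 5000 per well one day before treatment. Final DMSO was 0.2%. Each plate held untreated negative-control wells and 5 µM staurosporine positive-control wells.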
# Capan-1 [3] = assay: cells; parameters: Viability of PDAC cell lines, ATPlite luminescence, 11-dose single-agent curve fit; settings: Homo sapiens, CAPAN-1, 72 h, read-out: EC50 [nM]
# Summary of the method: as §3
# MiaPaCa-2 [4] = assay: cells; parameters: Viability of PDAC cell lines, ATPlite luminescence, 11-dose single-agent curve fit; settings: Homo sapiens, MIA PaCa-2, 72 h, read-out: EC50 [nM]
# Summary of the method: as §3
# PANC-1 [5] = assay: cells; parameters: Viability of PDAC cell lines, ATPlite luminescence, 11-dose single-agent curve fit; settings: Homo sapiens, PANC-1, 72 h, read-out: EC50 [nM]
# Summary of the method: as §3
# AsPC-1 [6] = assay: cells; parameters: Viability of PDAC cell lines, ATPlite luminescence, 11-dose single-agent curve fit; settings: Homo sapiens, ASPC1, 72 h, read-out: EC50 [nM]
# Summary of the method: as §3
# PaTu-8988-T [7] = assay: cells; parameters: Viability of PDAC cell lines, ATPlite luminescence, 11-dose single-agent curve fit; settings: Homo sapiens, PaTu 8988t, 72 h, read-out: EC50 [nM]
# Summary of the method: as §3
# Suit2-07 [8] = assay: cells; parameters: Viability of PDAC cell lines, ATPlite luminescence, 11-dose single-agent curve fit; settings: 72 h, read-out: EC50 [nM]
# Summary of the method: as §3
# HuP-T4 [9] = assay: cells; parameters: Viability of PDAC cell lines, ATPlite luminescence, 11-dose single-agent curve fit; settings: Homo sapiens, HuP-T4, 72 h, read-out: EC50 [nM]
# Summary of the method: as §3
# HPDE [10] = assay: cells; parameters: Viability of PDAC cell lines, ATPlite luminescence, 11-dose single-agent curve fit; settings: HPDE, 72 h, read-out: EC50 [nM]
# Summary of the method: as §3
# BxPC-3 [11] = assay: cells; parameters: Viability of PDAC cell lines, ATPlite luminescence, 11-dose single-agent curve fit; settings: Homo sapiens, BXPC-3, 72 h, read-out: EC50 [nM]
# Summary of the method: as §3
# FAMPAC [12] = assay: cells; parameters: Viability of PDAC cell lines, ATPlite luminescence, 11-dose single-agent curve fit; settings: 72 h, read-out: EC50 [nM]
# Summary of the method: as §3
# Dan-G [13] = assay: cells; parameters: Viability of PDAC cell lines, ATPlite luminescence, 11-dose single-agent curve fit; settings: 72 h, read-out: EC50 [nM]
# Summary of the method: as §3
# Colo-357 [14] = assay: cells; parameters: Viability of PDAC cell lines, ATPlite luminescence, 11-dose single-agent curve fit; settings: Homo sapiens, COLO357, 72 h, read-out: EC50 [nM]
# Summary of the method: as §3
# PSN-1 [15] = assay: cells; parameters: ATPlite luminescence viability of PDAC cell lines, 11-dose single-agent curves, 4-parameter fit; settings: Homo sapiens, PSN1, 72 h, read-out: EC50 [nM]
# Summary of the method: (§4)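 Drug-combination screening used cells plated at 1000 to 5000 per well one day before treatment. Final DMSO was 0.2%. Each plate held untreated negative-control wells and 5 µM staurosporine positive-control wells.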
# Capan-1 [16] = assay: cells; parameters: ATPlite luminescence viability of PDAC cell lines, 11-dose single-agent curves, 4-parameter fit; settings: Homo sapiens, CAPAN-1, 72 h, read-out: EC50 [nM]
# Summary of the method: as §4
# MiaPaCa-2 [17] = assay: cells; parameters: ATPlite luminescence viability of PDAC cell lines, 11-dose single-agent curves, 4-parameter fit; settings: Homo sapiens, MIA PaCa-2, 72 h, read-out: EC50 [nM]
# Summary of the method: as §4
# PANC-1 [18] = assay: cells; parameters: ATPlite luminescence viability of PDAC cell lines, 11-dose single-agent curves, 4-parameter fit; settings: Homo sapiens, PANC-1, 72 h, read-out: EC50 [nM]
# Summary of the method: as §4
# AsPC-1 [19] = assay: cells; parameters: ATPlite luminescence viability of PDAC cell lines, 11-dose single-agent curves, 4-parameter fit; settings: Homo sapiens, ASPC1, 72 h, read-out: EC50 [nM]
# Summary of the method: as §4
# PaTu-8988-T [20] = assay: cells; parameters: ATPlite luminescence viability of PDAC cell lines, 11-dose single-agent curves, 4-parameter fit; settings: Homo sapiens, PaTu 8988t, 72 h, read-out: EC50 [nM]
# Summary of the method: as §4
# Suit2-07 [21] = assay: cells; parameters: ATPlite luminescence viability of PDAC cell lines, 11-dose single-agent curves, 4-parameter fit; settings: 72 h, read-out: EC50 [nM]
# Summary of the method: as §4
# HuP-T4 [22] = assay: cells; parameters: ATPlite luminescence viability of PDAC cell lines, 11-dose single-agent curves, 4-parameter fit; settings: Homo sapiens, HuP-T4, 72 h, read-out: EC50 [nM]
# Summary of the method: as §4
# HPDE [23] = assay: cells; parameters: ATPlite luminescence viability of PDAC cell lines, 11-dose single-agent curves, 4-parameter fit; settings: HPDE, 72 h, read-out: EC50 [nM]
# Summary of the method: as §4
# BxPC-3 [24] = assay: cells; parameters: ATPlite luminescence viability of PDAC cell lines, 11-dose single-agent curves, 4-parameter fit; settings: Homo sapiens, BXPC-3, 72 h, read-out: EC50 [nM]
# Summary of the method: as §4
# FAMPAC [25] = assay: cells; parameters: ATPlite luminescence viability of PDAC cell lines, 11-dose single-agent curves, 4-parameter fit; settings: 72 h, read-out: EC50 [nM]
# Summary of the method: as §4
# Dan-G [26] = assay: cells; parameters: ATPlite luminescence viability of PDAC cell lines, 11-dose single-agent curves, 4-parameter fit; settings: 72 h, read-out: EC50 [nM]
# Summary of the method: as §4
# Colo-357 [27] = assay: cells; parameters: ATPlite luminescence viability of PDAC cell lines, 11-dose single-agent curves, 4-parameter fit; settings: Homo sapiens, COLO357, 72 h, read-out: EC50 [nM]
# Summary of the method: as §4
# Capan-1 cells = assay: Drug combination viability screen (ATPlite, 72 h); type: cell-based, human; settings: Bliss model
# Description: as §1, §2
# Dan-G cells = assay: Drug combination viability screen (ATPlite, 72 h); type: cell-based, human; settings: Bliss model
# Description: as §1, §2
# Colo-357 cells = assay: Drug combination viability screen (ATPlite, 72 h); type: cell-based, human; settings: Bliss model
# Description: as §1, §2
EC50 (PANC-1 [5]),EC50 (MiaPaCa-2 [17]),EC50 (PANC-1 [18]),EC50 (AsPC-1 [19]),EC50 (BxPC-3 [24]),EC50 (Colo-357 [27]),Structure (SMILES),median AUC across all cell lines (13 PDAC cell lines),EC50 (HuP-T4 [9]),EC50 (PSN-1 [15]),EC50 (Capan-1 [16]),EC50 (PaTu-8988-T [20]),EC50 (Suit2-07 [21]),EC50 (HuP-T4 [22]),EC50 (HPDE [23]),EC50 (FAMPAC [25]),EC50 (Dan-G [26]),other results
–,–,–,–,–,–,CCc1cnn2c(NCc3ccc[n+]([O-])c3)cc(N3CCCC[C@H]3CCO)nc12 [Dinaciclib],40%,–,–,–,–,–,–,–,–,–,"synergy with GEM (Bliss model, ΣAUC∆ > 10%) (13 PDAC cell lines): No synergy; AUC [1]: 38%"
29.2 nM,–,–,–,–,–,CO[C@H]1C[C@@H]2CC[C@@H](C)[C@@](O)(O2)C(=O)C(=O)N2CCCC[C@H]2C(=O)O[C@H]([C@H](C)C[C@@H]2CC[C@@H](OC(=O)C(C)(CO)CO)[C@H](OC)C2)CC(=O)[C@H](C)/C=C(\C)[C@@H](O)[C@@H](OC)C(=O)[C@H](C)C[C@H](C)/C=C/C=C/C=C/1C [Temsirolimus],> 80%,30.2 nM,–,–,–,–,–,–,–,–,EC50 (PSN-1 [2]): 0.57 nM; EC50 (Capan-1 [3]): 0.08 nM; EC50 (MiaPaCa-2 [4]): 2.17 nM; EC50 (AsPC-1 [6]): 1.54 nM; EC50 (PaTu-8988-T [7]): 0.57 nM; EC50 (Suit2-07 [8]): 0.35 nM; EC50 (HPDE [10]): 0.19 nM; EC50 (BxPC-3 [11]): 0.06 nM; EC50 (FAMPAC [12]): 0.13 nM; EC50 (Dan-G [13]): 1.3 nM; EC50 (Colo-357 [14]): 4160 nM
–,10.1 nM,70.5 nM,1.5 nM,11.2 nM,10.8 nM,CC(C)n1nc(-c2ccc3oc(N)nc3c2)c2c(N)ncnc21 [Sapanisertib],54%,–,23.2 nM,135 nM,3.95 nM,14.2 nM,1510 nM,11.7 nM,2.05 nM,8.08 nM,AUC [1]: < 60%
1590 nM,825 nM,–,–,–,355 nM,Cn1ncnc1[C@H]1c2n[nH]c(=O)c3cc(F)cc(c23)N[C@@H]1c1ccc(F)cc1 [Talazoparib],–,6060 nM,405 nM,507 nM,–,113 nM,–,–,693 nM,268 nM,"number of cell lines with synergy with GEM (13 PDAC cell lines; of 13 cell lines, Bliss model): two; EC50 (AsPC-1 [6]): 2650 nM; EC50 (PaTu-8988-T [7]): > 10000 nM; EC50 (HPDE [10]): > 10000 nM; EC50 (BxPC-3 [11]): 2960 nM"
45.6 nM,3.92 nM,–,3.02 nM,13.1 nM,–,CC(=O)Nc1cccc(-n2c(=O)n(C3CC3)c(=O)c3c(Nc4ccc(I)cc4F)n(C)c(=O)c(C)c32)c1 [Trametinib],< 70%,8.2 nM,5.34 nM,–,7.98 nM,8.92 nM,–,7 nM,9.21 nM,1.4 nM,EC50 (Capan-1 [3]): 88.1 nM; EC50 (Colo-357 [14]): 1160 nM
–,–,–,–,–,–,CO[C@H]1C[C@@H]2CC[C@@H](C)[C@@](O)(O2)C(=O)C(=O)N2CCCC[C@H]2C(=O)O[C@H]([C@H](C)C[C@@H]2CC[C@@H](OCCO)[C@H](OC)C2)CC(=O)[C@H](C)/C=C(\C)[C@@H](O)[C@@H](OC)C(=O)[C@H](C)C[C@H](C)/C=C/C=C/C=C/1C [Everolimus],> 80%,–,–,–,–,–,–,–,–,–,synergy with GEM (Capan-1 cells): synergized; synergy with GEM (Dan-G cells): synergized; sensitization of HPDE cells to GEM ([1]; combination with GEM): strongly sensitized; synergy with GEM (Colo-357 cells): synergized
–,12.8 nM,37.7 nM,21.1 nM,25.2 nM,19.8 nM,CC[C@@H]1C(=O)N(C)c2cnc(Nc3ccc(C(=O)N[C@H]4CC[C@H](N5CCN(CC6CC6)CC5)CC4)cc3OC)nc2N1C(C)C [Volasertib],54%,–,16.4 nM,32.3 nM,33.8 nM,19 nM,> 10000 nM,> 10000 nM,19.9 nM,29.1 nM,"synergy with GEM (Bliss model, ΣAUC∆ > 10%) (13 PDAC cell lines): No synergy"
–,26.3 nM,28.6 nM,41.9 nM,29.9 nM,37.7 nM,O=C(Cc1ccc(-c2ccc(OCCN3CCOCC3)cc2)cn1)NCc1ccccc1 [Tirbanibulin],60%,10300 nM,30.7 nM,43.4 nM,33 nM,45 nM,–,39.9 nM,33.1 nM,31.9 nM,–
–,65.6 nM,58.8 nM,175 nM,113 nM,17.6 nM,COc1c(OCCCN2CCOCC2)ccc2c1N=C(NC(=O)c1cnc(N)nc1)N1CCN=C21 [Copanlisib],< 70%,–,787 nM,21.6 nM,101 nM,108 nM,48 nM,283 nM,1110 nM,29.8 nM,–
–,6.21 nM,> 10000 nM,13.7 nM,101 nM,5300 nM,O=C(c1ccc(F)c(F)c1Nc1ccc(I)cc1F)N1CC(O)([C@@H]2CCCCN2)C1 [Cobimetinib],< 70%,–,12.3 nM,8510 nM,5570 nM,752 nM,> 10000 nM,4490 nM,39.5 nM,> 10000 nM,–
